The compounds below were run against T1, human PTH1 receptor (Homo sapiens, UniProt Q03431) (assay: In vitro cAMP signal activity in HKRK-B7 cells (LLC-PK1 cells overexpressing the human PTH1 receptor)). Settings: 0.1 µM.
T1 sequence (Q03431 27-593): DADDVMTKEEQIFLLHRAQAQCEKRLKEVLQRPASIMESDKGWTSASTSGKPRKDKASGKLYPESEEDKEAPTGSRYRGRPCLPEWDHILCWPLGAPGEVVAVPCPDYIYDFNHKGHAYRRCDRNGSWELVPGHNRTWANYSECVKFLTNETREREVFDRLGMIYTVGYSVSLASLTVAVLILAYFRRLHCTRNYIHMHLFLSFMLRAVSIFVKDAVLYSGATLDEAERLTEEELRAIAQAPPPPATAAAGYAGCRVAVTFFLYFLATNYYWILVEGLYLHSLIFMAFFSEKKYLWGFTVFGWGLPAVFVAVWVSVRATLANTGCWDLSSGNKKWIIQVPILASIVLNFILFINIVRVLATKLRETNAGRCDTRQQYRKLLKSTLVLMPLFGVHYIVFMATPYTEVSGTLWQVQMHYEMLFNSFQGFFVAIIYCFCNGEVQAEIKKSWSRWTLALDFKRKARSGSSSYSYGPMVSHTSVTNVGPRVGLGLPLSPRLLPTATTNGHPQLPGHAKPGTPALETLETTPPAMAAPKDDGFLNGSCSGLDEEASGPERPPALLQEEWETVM
Format: cell-based

Q: `Cc1cc(N(C)C(N)=O)cc(C)c1CCS(=O)(=O)N1CCC2(CC1)N=C(c1cccc(C(F)(F)C(F)(F)C(F)(F)C(F)(F)F)c1)NC2=O` [Compound 1341, 1-(3,5-dimethyl-4-{2-[2-(3-nonafluorobutyl-phenyl)-4-oxo-1,3,8-triaza-spiro[4.5]dec-1-ene-8-sulfonyl]-ethyl}-phenyl)-1-methyl-urea] was tested. Which “cAMP production activity (%)” value did it give?
A: 83%

Same assay, conditions: HKRK-B7 cells; compound at 1×10^−3 M; cAMP produced as percentage of that produced by hPTH(1-34) at 100 nM

Q: For `Cc1cc(N(C)C(N)=O)cc(C)c1CCS(=O)(=O)N1CCC2(CC1)N=C(CCCCCc1ccccc1)NC2=O` [Compound 1340, 1-(3,5-dimethyl-4-{2-[4-oxo-2-(5-phenyl-pentyl)-1,3,8-triaza-spiro[4.5]dec-1-ene-8-sulfonyl]-ethyl}-phenyl)-1-methyl-urea], which “cAMP production activity (%)” value is on record?
A: 84%

Q: `CCCCCc1ccc(C2=NC3(CCN(S(=O)(=O)CCc4c(C)cc(N(C)C(N)=O)cc4C)CC3)C(=O)N2)cc1` [Compound 1342, 1-(3,5-dimethyl-4-{2-[4-oxo-2-(4-pentyl-phenyl)-1,3,8-triaza-spiro[4.5]dec-1-ene-8-sulfonyl]-ethyl}-phenyl)-1-methyl-urea] was tested. Which “cAMP production activity (%)” value did it give?
A: 114%

Q: With `CCC[C@@H]1CCC[C@H](C2=NC3(CCN(S(=O)(=O)CCc4c(C)cc(N(C)C(N)=O)cc4C)CC3)C(=O)N2)C1` [Compound 1343, 1-(3,5-dimethyl-4-{2-[4-oxo-2-((1S,3R)-3-propyl-cyclohexyl)-1,3,8-triaza-spiro[4.5]dec-1-ene-8-sulfonyl]-ethyl}-phenyl)-1-methyl-urea] as the compound, how does the “cAMP production activity (%)” value read?
A: 98%

Q: With `CCOCCCCCCC1=NC2(CCN(S(=O)(=O)CCc3c(C)cc(N(C)C(N)=O)cc3C)CC2)C(=O)N1` [Compound 1344, 1-(4-{2-[2-(6-ethoxy-hexyl)-4-oxo-1,3,8-triaza-spiro[4.5]dec-1-ene-8-sulfonyl]-ethyl}-3,5-dimethyl-phenyl)-1-methyl-urea] as the compound, how does the “cAMP production activity (%)” value read?
A: 94%

Q: How did the “cAMP production activity (%)” value turn out when `Cc1cc(N(C)C(N)=O)cc(C)c1CCS(=O)(=O)N1CCC2(CC1)N=C(c1cccc(CCCCCC(F)(F)F)c1)NC2=O` [Compound 1345, 1-[3,5-dimethyl-4-(2-{4-oxo-2-[3-(6,6,6-trifluoro-hexyl)-phenyl]-1,3,8-triaza-spiro[4.5]dec-1-ene-8-sulfonyl}-ethyl)-phenyl]-1-methyl-urea] was run?
A: 107%

Q: With `CCOC(=O)CCCCCCCCCCCC1=NC2(CCN(S(=O)(=O)CCc3c(C)cc(N(C)C(N)=O)cc3C)CC2)C(=O)N1` [Compound 1347, 12-(8-{2-[2,6-dimethyl-4-(1-methyl-ureido)-phenyl]-ethanesulfonyl}-4-oxo-1,3,8-triaza-spiro[4.5]dec-1-en-2-yl)-dodecanoic acid ethyl ester] as the compound, how does the “cAMP production activity (%)” value read?
A: 87%

Q: Which “cAMP production activity (%)” value does the source give for `Cc1cc(N(C)C(N)=O)cc(C)c1CCS(=O)(=O)N1CCC2(CC1)N=C(CCCCCCCCCc1ccccc1)NC2=O` [Compound 1348, 1-(3,5-dimethyl-4-{2-[4-oxo-2-(9-phenyl-nonyl)-1,3,8-triaza-spiro[4.5]dec-1-ene-8-sulfonyl]-ethyl}-phenyl)-1-methyl-urea] here?
A: 95%

Q: With `Cc1cc(N(C)C(N)=O)cc(C)c1CCS(=O)(=O)N1CCC2(CC1)N=C(CCCCCCc1ccccc1)NC2=O` [Compound 1349, 1-(3,5-dimethyl-4-{2-[4-oxo-2-(6-phenyl-hexyl)-1,3,8-triaza-spiro[4.5]dec-1-ene-8-sulfonyl]-ethyl}-phenyl)-1-methyl-urea] as the compound, how does the “cAMP production activity (%)” value read?
A: 98%

Q: `Cc1cc(N(C)C(N)=O)cc(C)c1CCS(=O)(=O)N1CCC2(CC1)N=C(CCCCCCCCCCCCCC(=O)O)NC2=O` [Compound 1350, 14-(8-{2-[2,6-dimethyl-4-(1-methyl-ureido)-phenyl]-ethanesulfonyl}-4-oxo-1,3,8-triaza-spiro[4.5]dec-1-en-2-yl)-tetradecanoic acid] was tested. Which “cAMP production activity (%)” value did it give?
A: 22%

Q: For `COCCCCCCCC1=NC2(CCN(S(=O)(=O)CCc3c(C)cc(N(C)C(N)=O)cc3C)CC2)C(=O)N1` [Compound 1351, 1-(4-{2-[2-(7-methoxy-heptyl)-4-oxo-1,3,8-triaza-spiro[4.5]dec-1-ene-8-sulfonyl]-ethyl}-3,5-dimethyl-phenyl)-1-methyl-urea], which “cAMP production activity (%)” value is on record?
A: 100%

Q: `CCCOCCCCCC1=NC2(CCN(S(=O)(=O)CCc3c(C)cc(N(C)C(N)=O)cc3C)CC2)C(=O)N1` [Compound 1352, 1-(3,5-dimethyl-4-{2-[4-oxo-2-(5-propoxy-pentyl)-1,3,8-triaza-spiro[4.5]dec-1-ene-8-sulfonyl]-ethyl}-phenyl)-1-methyl-urea] was tested. Which “cAMP production activity (%)” value did it give?
A: 78%

Q: Which “cAMP production activity (%)” value does the source give for `CCCCCCC(CCC)CCC1=NC2(CCN(S(=O)(=O)CCc3c(C)cc(N(C)C(N)=O)cc3C)CC2)C(=O)N1` (stereo not shown) [Compound 1353, 1-(3,5-dimethyl-4-{2-[4-oxo-2-(3-propyl-nonyl)-1,3,8-triaza-spiro[4.5]dec-1-ene-8-sulfonyl]-ethyl}-phenyl)-1-methyl-urea] here?
A: 111%

Q: `CCCCCc1ccc(C2=NC3(CCN(S(=O)(=O)CCc4c(C)cc(N(C)C(N)=O)cc4C)CC3)C(=O)N2)cc1OC` [Compound 1354, 1-(4-{2-[2-(3-methoxy-4-pentyl-phenyl)-4-oxo-1,3,8-triaza-spiro[4.5]dec-1-ene-8-sulfonyl]-ethyl}-3,5-dimethyl-phenyl)-1-methyl-urea] was tested. Which “cAMP production activity (%)” value did it give?
A: 128%

Q: How did the “cAMP production activity (%)” value turn out when `CCCc1cc2ccc(C3=NC4(CCN(S(=O)(=O)CCc5c(C)cc(N(C)C(N)=O)cc5C)CC4)C(=O)N3)cc2o1` [Compound 1355, 1-(3,5-dimethyl-4-{2-[4-oxo-2-(2-propyl-benzofuran-6-yl)-1,3,8-triaza-spiro[4.5]dec-1-ene-8-sulfonyl]-ethyl}-phenyl)-1-methyl-urea] was run?
A: 118%

Q: Which “cAMP production activity (%)” value does the source give for `CCCS(=O)(=O)CCCCCC1=NC2(CCN(S(=O)(=O)CCc3c(C)cc(N(C)C(N)=O)cc3C)CC2)C(=O)N1` [Compound 1356, 1-[3,5-dimethyl-4-(2-{4-oxo-2-[5-(propane-1-sulfonyl)-pentyl]-1,3,8-triaza-spiro[4.5]dec-1-ene-8-sulfonyl}-ethyl)-phenyl]-1-methyl-urea] here?
A: 14%

Q: With `Cc1cc(N(C)C(N)=O)cc(C)c1CCS(=O)(=O)N1CCC2(CC1)N=C(CCCCCCCS(C)(=O)=O)NC2=O` [Compound 1357, 1-(4-{2-[2-(7-methanesulfonyl-heptyl)-4-oxo-1,3,8-triaza-spiro[4.5]dec-1-ene-8-sulfonyl]-ethyl}-3,5-dimethyl-phenyl)-1-methyl-urea] as the compound, how does the “cAMP production activity (%)” value read?
A: 13%

Q: `Cc1cc(N(C)C(N)=O)cc(C)c1CCS(=O)(=O)N1CCC2(CC1)N=C(c1ccc(CCCC(F)(F)F)cc1)NC2=O` [Compound 1358, 1-[3,5-dimethyl-4-(2-{4-oxo-2-[4-(4,4,4-trifluoro-butyl)-phenyl]-1,3,8-triaza-spiro[4.5]dec-1-ene-8-sulfonyl}-ethyl)-phenyl]-1-methyl-urea] was tested. Which “cAMP production activity (%)” value did it give?
A: 153%

Q: `Cc1cc(N(C)C(N)=O)cc(C)c1CCS(=O)(=O)N1CCC2(CC1)N=C(c1cccc(CCCC(F)(F)F)c1)NC2=O` [Compound 1359, 1-[3,5-dimethyl-4-(2-{4-oxo-2-[3-(4,4,4-trifluoro-butyl)-phenyl]-1,3,8-triaza-spiro[4.5]dec-1-ene-8-sulfonyl}-ethyl)-phenyl]-1-methyl-urea] was tested. Which “cAMP production activity (%)” value did it give?
A: 165%

Q: For `Cc1cc(N(C)C(N)=O)cc(C)c1CCS(=O)(=O)N1CCC2(CC1)N=C(CCCCCCCCCCCNC(=O)OC(C)(C)C)NC2=O` [Compound 1360, [11-(8-{2-[2,6-dimethyl-4-(1-methyl-ureido)-phenyl]-ethanesulfonyl}-4-oxo-1,3,8-triaza-spiro[4.5]dec-1-en-2-yl)-undecyl]-carbamic acid tert-butyl ester], which “cAMP production activity (%)” value is on record?
A: 121%

Q: How did the “cAMP production activity (%)” value turn out when `Cc1cc(N(C)C(N)=O)cc(C)c1CCS(=O)(=O)N1CCC2(CC1)N=C(CCCCCCCCCCCO)NC2=O` [Compound 1361, 1-(4-{2-[2-(11-hydroxy-undecyl)-4-oxo-1,3,8-triaza-spiro[4.5]dec-1-ene-8-sulfonyl]-ethyl}-3,5-dimethyl-phenyl)-1-methyl-urea] was run?
A: 104%

Q: For `Cc1cc(N(C)C(N)=O)cc(C)c1CCS(=O)(=O)N1CCC2(CC1)N=C(CCCCCCCCCC(=O)O)NC2=O` [Compound 1362, 10-(8-{2-[2,6-dimethyl-4-(1-methyl-ureido)-phenyl]-ethanesulfonyl}-4-oxo-1,3,8-triaza-spiro[4.5]dec-1-en-2-yl)-decanoic acid], which “cAMP production activity (%)” value is on record?
A: 48%

Q: For `Cc1cc(N(C)C(N)=O)cc(C)c1CCS(=O)(=O)N1CCC2(CC1)N=C(CCCCCCCCCC(N)=O)NC2=O` [Compound 1363, 10-(8-{2-[2,6-dimethyl-4-(1-methyl-ureido)-phenyl]-ethanesulfonyl}-4-oxo-1,3,8-triaza-spiro[4.5]dec-1-en-2-yl)-decanoic acid amide], which “cAMP production activity (%)” value is on record?
A: 80%

Q: How did the “cAMP production activity (%)” value turn out when `[2H]C([2H])([2H])C1([2H])CCC(C2=NC3(CCN(S(=O)(=O)CCc4c(C)cc(N(C)C(N)=O)cc4C)CC3)C(=O)N2)CC1` (stereo not shown) [Compound 1364, 1-(3,5-dimethyl-4-{2-[2-(4-[1,1,1-^2H3]-methyl-[4-^2H1]cyclohexyl)-4-oxo-1,3,8-triaza-spiro[4.5]dec-1-ene-8-sulfonyl]-ethyl}-phenyl)-1-methyl-urea] was run?
A: 84%

Q: Which “cAMP production activity (%)” value does the source give for `Cc1cc(N(C)C(N)=O)cc(C)c1/C=C/S(=O)(=O)N1CCC2(CC1)N=C(CCCCCCCCCc1ccccc1)NC2=O` [Compound 1365, 1-(3,5-Dimethyl-4-{(E)-2-[4-oxo-2-(9-phenyl-nonyl)-1,3,8-triaza-spiro[4.5]dec-1-ene-8-sulfonyl]-vinyl}-phenyl)-1-methyl-urea] here?
A: 108%
